Reference: patent US9056865B2, “Pyridine-2-derivatives as smoothened receptor modulators” (Pfizer Inc., priority 2010, dated 2015)
pIC50: −log10 of the molar value.

Columns and labels:
[1] = target: human Smo (Homo sapiens (Human), UniProt Q99835); assay: Smo radioligand competition binding assay; settings: for inhibition at 0.05 µM: 0.05 μM test compound, read-out: Smo % inh. @ 0.05 μM
In short: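 Membranes from HEK293 cells expressing surface human Smo 181-781 (40 μg protein/well) incubated 2 h at room temperature with test compound and tritiated Smo antagonist (3 nM), pH 7.5 Tris buffer; filtration and scintillation counting. Non-specific binding defined with 30 μM cold antagonist; IC50 from four-parameter sigmoidal fit.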

[2] = tested on: Gli-Luc/MEF cells; assay: Gli-Luc/MEF assay; assay type: cell-based, mouse; settings: Mus musculus, MEF; Shh-stimulated luciferase, 48 hours
In short: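 Mouse embryonic fibroblasts from Gli-Luc transgenic mice (luciferase under Gli response element) dosed with compounds (final […], 3-fold series), then stimulated with recombinant mouse Shh at final 2 μg/mL. After 48 h at 37 °C, luminescence read by Bright-Glo; IC50 from inhibition of Shh-induced signal.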

human Smo, sequence (Q99835 181-787): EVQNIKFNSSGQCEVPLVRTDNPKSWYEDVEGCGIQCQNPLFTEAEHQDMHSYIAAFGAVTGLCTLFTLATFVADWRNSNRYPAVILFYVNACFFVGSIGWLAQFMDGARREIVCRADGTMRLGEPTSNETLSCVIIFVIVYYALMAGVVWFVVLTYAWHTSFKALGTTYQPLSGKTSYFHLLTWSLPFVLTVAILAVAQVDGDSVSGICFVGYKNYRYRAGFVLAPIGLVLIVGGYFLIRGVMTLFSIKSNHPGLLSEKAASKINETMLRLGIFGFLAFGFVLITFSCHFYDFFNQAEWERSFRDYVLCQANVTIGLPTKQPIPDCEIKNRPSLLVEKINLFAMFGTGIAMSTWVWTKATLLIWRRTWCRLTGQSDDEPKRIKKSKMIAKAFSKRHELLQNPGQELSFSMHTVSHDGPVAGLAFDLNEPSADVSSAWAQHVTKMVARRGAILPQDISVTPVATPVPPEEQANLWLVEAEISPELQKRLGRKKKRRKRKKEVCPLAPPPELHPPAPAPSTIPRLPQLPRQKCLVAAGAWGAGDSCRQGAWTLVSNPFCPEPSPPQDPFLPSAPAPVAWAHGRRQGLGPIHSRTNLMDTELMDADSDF

Work on `Cc1cccnc1-c1cc(N2CCC(C(=O)NCc3ncc[nH]3)CC2)ncc1Cl` [Example A-54, 1-(5′-chloro-3-methyl-2,4′-bipyridin-2′-yl)-N-(1H-imidazol-2-ylmethyl)piperidine-4-carboxamide] yielded a pIC50 [1] of 7.19, an inhibition at 0.05 µM [1] of 86.1% and a pIC50 [2] of 7.26.
For `COc1ccccc1CNC(=O)C1CCN(c2cc(-c3ncccc3C)c(Cl)cn2)CC1` [Example A-79, 1-(5′-chloro-3-methyl-2,4′-bipyridin-2′-yl)-N-(2-methoxybenzyl)piperidine-4-carboxamide], the pIC50 [1] was 6.79, the inhibition at 0.05 µM [1] was 78.4% and the pIC50 [2] was 7.52.
Work on `COC(=O)N1CCN(c2ncc(Cl)c(-c3ncccc3C)n2)CC1` [Example A-36, methyl 4-[5-chloro-4-(3-methylpyridin-2-yl)pyrimidin-2-yl]piperazine-1-carboxylate] yielded a pIC50 [1] of 6.61, an inhibition at 0.05 µM [1] of 72.7% and a pIC50 [2] of 6.96.
`CS(=O)(=O)NC1CCN(c2cc(-c3ncc(Cl)cc3F)c(Cl)cn2)CC1` [Example A-17, N-[1-(5,5′-dichloro-3-fluoro-2,4′-bipyridin-2′-yl)piperidin-4-yl]methanesulfonamide] gave a pIC50 [1] of 6.29, an inhibition at 0.05 µM [1] of 63% and a pIC50 [2] of 7.22.
Molecule `Cc1cccnc1-c1cc(N2CCC(C(=O)N[C@H]3CCN(S(C)(=O)=O)C3)CC2)ncc1Cl` [Example A-60, 1-(5′-chloro-3-methyl-2,4′-bipyridin-2′-yl)-N-[(3S)-1-(methylsulfonyl)pyrrolidin-3-yl]piperidine-4-carboxamide] has a pIC50 [1] of 7.17, an inhibition at 0.05 µM [1] of 83.8% and a pIC50 [2] of 7.24.
`Cc1ccc(-c2cccc(N3CCC(NS(C)(=O)=O)CC3)n2)nc1` [Example A-115, N-[1-(5′-methyl-2,2′-bipyridin-6-yl)piperidin-4-yl]methanesulfonamide] gave a pIC50 [1] of 7.66, an inhibition at 0.05 µM [1] of 93% and a pIC50 [2] of 7.80.
`Cc1cccnc1-c1cc(N2CCC(C(=O)NC3CCOC3)CC2)ncc1Cl` (centres unmarked) [Example A-78, 1-(5′-chloro-3-methyl-2,4′-bipyridin-2′-yl)-N-(tetrahydrofuran-3-yl)piperidine-4-carboxamide] was tested, and the pIC50 [1] was 6.53, the inhibition at 0.05 µM [1] was 70.1% and the pIC50 [2] was 7.06.
For `Cc1cccnc1-c1cc(N2CCC(CNCCS(C)(=O)=O)CC2)ncc1Cl` [Example A-96, N-{[1-(5′-chloro-3-methyl-2,4′-bipyridin-2′-yl)piperidin-4-yl]methyl}-2-(methylsulfonyl)ethanamine], the pIC50 [1] was 6.99, the inhibition at 0.05 µM [1] was 84.1% and the pIC50 [2] was 7.20.
Molecule `CC(=O)N1CCN(c2ncc(Cl)c(-c3ncccc3C)n2)CC1` [Example A-26, 2-(4-acetylpiperazin-1-yl)-5-chloro-4-(3-methylpyridin-2-yl)pyrimidine] has a pIC50 [1] of 6.44, an inhibition at 0.05 µM [1] of 69.9% and a pIC50 [2] of 6.72.
Work on `Cc1cccnc1-c1cc(N2CCN(C(=O)C(C)C)CC2)ncc1Cl` [Example A-44, 5′-chloro-2′-(4-isobutyrylpiperazin-1-yl)-3-methyl-2,4′-bipyridine] yielded a pIC50 [1] of 6.89, an inhibition at 0.05 µM [1] of 82.9% and a pIC50 [2] of 7.10.
`CS(=O)(=O)CCC(=O)NC1CCN(c2ccc(Cl)c(-c3ccccn3)n2)CC1` [Example A-128, N-[1-(3-chloro-2,2′-bipyridin-6-yl)piperidin-4-yl]-3-(methylsulfonyl)propanamide] gave a pIC50 [1] of 7.50, an inhibition at 0.05 µM [1] of 95% and a pIC50 [2] of 7.82.
`Cc1cc(F)cnc1-c1cc(N2CCC(NS(=O)(=O)CC(C)(C)O)CC2)ncc1Cl` [Example A-153, N-[1-(5′-chloro-5-fluoro-3-methyl-2,4′-bipyridin-2′-yl)piperidin-4-yl]-2-hydroxy-2-methylpropane-1-sulfonamide] showed a pIC50 [1] of 7.97, an inhibition at 0.05 µM [1] of 96.4% and a pIC50 [2] of 8.33.
Work on `Cc1cccnc1-c1cc(N2CCC(C(=O)N3CCc4c(c(C(C)C)nn4C)C3)CC2)ncc1Cl` [Example A-65, 5′-chloro-2′-{4-[(3-isopropyl-1-methyl-1,4,6,7-tetrahydro-5H-pyrazolo[4,3-c]pyridin-5-yl)carbonyl]piperidin-1-yl}-3-methyl-2,4′-bipyridine] yielded a pIC50 [1] of 6.84, an inhibition at 0.05 µM [1] of 78.5% and a pIC50 [2] of 6.91.
Work on `Cc1cccnc1-c1cc(N2CCN(S(C)(=O)=O)CC2)ncc1Cl` [Example A-22, 5′-chloro-3-methyl-2′-[4-(methylsulfonyl)piperazin-1-yl]-2,4′-bipyridine] yielded a pIC50 [1] of 6.96, an inhibition at 0.05 µM [1] of 81.5% and a pIC50 [2] of 7.38.
Work on `Cc1cnc(-c2cc(N3CCC(NS(C)(=O)=O)CC3)ncc2Cl)c(C)c1` [Example A-14, N-[1-(5′-chloro-3,5-dimethyl-2,4′-bipyridin-2′-yl)piperidin-4-yl]methanesulfonamide] yielded a pIC50 [1] of 8.19, an inhibition at 0.05 µM [1] of 95% and a pIC50 [2] of 7.79.
For `Cc1cc(F)cnc1-c1cc(N2CCN(S(=O)(=O)CC(C)(C)O)CC2)ncc1Cl` [Example A-152, 1-{[4-(5′-chloro-5-fluoro-3-methyl-2,4′-bipyridin-2′-yl)piperazin-1-yl]sulfonyl}-2-methylpropan-2-ol], the inhibition at 0.05 µM [1] was 95.9% and the pIC50 [2] was 7.95.
`COCCC(=O)NC1CCN(c2cc(-c3ncccc3C)c(Cl)cn2)CC1` [Example A-27, N-[1-(5′-chloro-3-methyl-2,4′-bipyridin-2′-yl)piperidin-4-yl]-3-methoxypropanamide] was tested, and the pIC50 [1] was 6.97, the inhibition at 0.05 µM [1] was 75.7% and the pIC50 [2] was 7.68.
For `CS(=O)(=O)NC1CCN(c2ncc(Cl)c(-c3ccccn3)c2F)CC1` [Example A-138, N-(1-(5′-chloro-3′-fluoro-2,4′-bipyridin-2′-yl)piperidin-4-yl)methanesulfonamide], the pIC50 [1] was 7.07, the inhibition at 0.05 µM [1] was 80.5% and the pIC50 [2] was 7.53.
For `CS(=O)(=O)NC1CCN(c2cc(-c3ccc(C(F)(F)F)cn3)c(Cl)cn2)CC1` [Example A-13, N-{1-[5′-chloro-5-(trifluoromethyl)-2,4′-bipyridin-2′-yl]piperidin-4-yl}methanesulfonamide], the pIC50 [1] was 6.96, the inhibition at 0.05 µM [1] was 56% and the pIC50 [2] was 6.39.
Molecule `Cc1cccnc1-c1cc(N2CCC(C(=O)N[C@@H]3CC[C@@H](O)C3)CC2)ncc1Cl` [Example A-66, 1-(5′-chloro-3-methyl-2,4′-bipyridin-2′-yl)-N-[(1R,3R)-3-hydroxycyclopentyl]piperidine-4-carboxamide] has a pIC50 [1] of 6.79, an inhibition at 0.05 µM [1] of 81.7% and a pIC50 [2] of 7.03.
For `Cc1cccnc1-c1nc(N2CCC(O)CC2)ncc1Cl` [Example A-30, 1-[5-chloro-4-(3-methylpyridin-2-yl)pyrimidin-2-yl]piperidin-4-ol], the pIC50 [1] was 6.80, the inhibition at 0.05 µM [1] was 77.7% and the pIC50 [2] was 6.61.
With `COCCC(=O)N1CCN(c2cc(-c3ncccc3C)c(Cl)cn2)CC1` [Example A-29, 5′-chloro-2′-[4-(3-methoxypropanoyl)piperazin-1-yl]-3-methyl-2,4′-bipyridine] the pIC50 [1] was 7.28, the inhibition at 0.05 µM [1] was 89.3% and the pIC50 [2] was 7.37.
`Cc1cnc(-c2cc(N3CCN(C(=O)CCO)CC3)ncc2Cl)c(C)c1` [Example A-106, 3-[4-(5′-chloro-3,5-dimethyl-2,4′-bipyridin-2′-yl)piperazin-1-yl]-3-oxopropan-1-ol] gave a pIC50 [1] of 7.18, an inhibition at 0.05 µM [1] of 86% and a pIC50 [2] of 7.44.
Molecule `Cc1cccnc1-c1cc(N2CCC(NC(=O)CC(C)(C)O)CC2)ncc1Cl` [Example A-52, N-(1-(5′-chloro-3-methyl-[2,4′-bipyridin]-2′-yl)piperidin-4-yl)-3-hydroxy-3-methylbutanamide] has a pIC50 [1] of 7.27, an inhibition at 0.05 µM [1] of 90.6% and a pIC50 [2] of 7.55.
In the case of `Cc1cccnc1-c1cc(N2CCC(C(=O)NC3CCS(=O)(=O)CC3)CC2)ncc1Cl` [Example A-80, 1-(5′-chloro-3-methyl-2,4′-bipyridin-2′-yl)-N-(1,1-dioxidotetrahydro-2H-thiopyran-4-yl)piperidine-4-carboxamide], the pIC50 [1] was 7.47, the inhibition at 0.05 µM [1] was 101% and the pIC50 [2] was 7.78.
For `Cc1cc(F)cnc1-c1cc(N2CCN(S(=O)(=O)CCO)CC2)ncc1Cl` [Example A-150, 2-{[4-(5′-chloro-5-fluoro-3-methyl-2,4′-bipyridin-2′-yl)piperazin-1-yl]sulfonyl}ethanol], the pIC50 [1] was 7.09, the inhibition at 0.05 µM [1] was 76.9% and the pIC50 [2] was 7.53.
`CC(=O)N1CCN(c2cc(-c3ncc(C)cc3C)c(Cl)cn2)CC1` [Example A-100, 2′-(4-acetylpiperazin-1-yl)-5′-chloro-3,5-dimethyl-2,4′-bipyridine] showed a pIC50 [1] of 6.95, an inhibition at 0.05 µM [1] of 85.6% and a pIC50 [2] of 7.30.
`COCCS(=O)(=O)NC1CCN(c2ccc(Cl)c(-c3ccccn3)n2)CC1` [Example A-123, N-[1-(3-chloro-2,2′-bipyridin-6-yl)piperidin-4-yl]-2-methoxyethanesulfonamide] gave a pIC50 [1] of 7.57, an inhibition at 0.05 µM [1] of 90.4% and a pIC50 [2] of 7.85.
`Cc1cnc(-c2cc(N3CCN(CCS(C)(=O)=O)CC3)ncc2Cl)c(C)c1` [Example A-112, 5′-chloro-3,5-dimethyl-2′-{4-[2-(methylsulfonyl)ethyl]piperazin-1-yl}-2,4′-bipyridine] gave a pIC50 [1] of 6.91, an inhibition at 0.05 µM [1] of 72.9% and a pIC50 [2] of 7.60.
For `CN(C)CC(=O)NC1CCN(c2ccc(Cl)c(-c3ccccn3)n2)CC1` [Example A-129, N-(1-(3-chloro-[2,2′-bipyridin]-6-yl)piperidin-4-yl)-2-(dimethylamino)acetamide], the pIC50 [1] was 7.27, the inhibition at 0.05 µM [1] was 88.4% and the pIC50 [2] was 8.09.
Molecule `NS(=O)(=O)CC1CCN(c2ccc(Cl)c(-c3ccccn3)n2)CC1` [Example A-91, 1-[1-(3-chloro-2,2′-bipyridin-6-yl)piperidin-4-yl]methanesulfonamide] has a pIC50 [1] of 7.58, an inhibition at 0.05 µM [1] of 92.7% and a pIC50 [2] of 7.54.
